“And” between values parts separate entries of the source, which are not always exact repeats. Equal entries are not always repeated. Marks after values point to notes of the source that are not given here.
What was measured:
[1] = Stability in human plasma (HPLC); format: in vitro ADME
Description: Sample Preparation. To 300 microliters of spiked plasma are added 30 microliters of methanol. The mixture is agitated and allowed to stand for 2 minutes. Then 600 microliters of methanol are added. The mixture is centrifuged. The supernatant is removed for analysis by HPLC. Analyses were performed under the following chrmotographic conditions: Column: Nova-Pak C18, 15 cm. Eluant: 50% acetonitrile/water with 0.8% triethylamine, 0.2% phosphoric acid. Detection: UV (250 nm).

[2] = system: Human Lymphoblastic Leukemia CCRF-CEM; test: CCRF-CEM xenograft in nude mice, i.v. 6 h infusion; format: in vivo; conditions: for Average Body Weight, Day 21: initial weight
[3] = Toxicity in normal nude mice; format: in vivo, athymic nude mice; conditions: for Number of mice died: QD × 4, i.p.; for decrease in lymphocytes: EpoB 0.6 mg/kg or dEpoB 25 mg/kg, QDx4, i.p., preliminary; for mice died / survived: desoxyepothilone B 25 mg/kg QDx4 i.p.; for mice died of toxicity: epothilone B 0.6 mg/kg QDx4 i.p.
Description: For in vivo studies, paclitaxel in Cremophor-EtOH was further diluted with DMSO as needed. Vinblastine sulfate (Velban) (Eli Lilly & Co. Indianapolis, Ind.), and doxorubicin or adriamycin HCl (DX or Adr) (Pharmacia, Columbus, Ohio) in saline were diluted with DMSO as needed. DMSO was used as a vehicle for epothilones. Each mouse received ≦40 μL DMSO in all experiments.
The toxicity of EpoB and dEpoB was compared in normal athymic nude mice on the daily i.p. schedule. EpoB at 0.6 mg/kg, QDX4, i.p. led to lethality in all eight mice. […] Similar leukopenia was found with paclitaxel. Some obstructive fecal mass in the large intestine was noted following Epo treatments in the preliminary study.

[4] = system: CCRF-CEM/VBL; test: CCRF-CEM/VBL xenograft in nude mice, i.v. 6 h infusion; format: in vivo; conditions: for Lowest Average Tumor Size (T/C) / Tumor Disappearance: dEpoB 30 mg/kg Q2D x 5, Taxol 15 mg/kg Q2D x 5
Text: Treatment on days 19, 21, 23, 25, 27, 39, 41, 43, 45, 47 and 53.

[5] = system: human ovarian UL3-C tumor; test: UL3-C ovarian tumor xenograft; conditions: for Lowest Average Tumor Size (T/C) / Tumor Disappearance: dEpoB 30 mg/kg Q2D x 5, Taxol 15 mg/kg Q2D x 5; for Average Body Weight (change), Day 33 / Average Body Weight Change, Day 27 / Average Body Weight Change, Day 29 / Average Body Weight Change, Day 31 / Average Tumor Size (T/C), Day 27 / Average Tumor Size (T/C), Day 29 / Average Tumor Size (T/C), Day 31 / Average Tumor Size (T/C), Day 33 / Average Body Weight, Day 19: dEpoB 30, Taxol 20 mg/kg, i.v. infusions on day 19,21,23,25,27; for Average Body Weight, Day 19: initial weight
[6] = Hematology and blood chemistry toxicity in MX-1 bearing mice; conditions: day 30; dEpoB 25 mg/kg i.p. day 7-15 then 35 mg/kg day 17-25; Taxol 5 then 6 mg/kg; MX-1 bearing nude mice
[7] = system: HT-29 Colon Adenocarcinoma; test: HT-29 xenograft; format: in vivo, nude mice; conditions: for Lowest Average Tumor Size (T/C) / Tumor Disappearance: dEpoB 30 mg/kg Q2D x 6, Taxol 15 mg/kg Q2D x 6
[8] = in vivo; conditions: male, athymic nude (nu/nu), outbred, Swiss background, mouse, in vivo, ip
Description: DMSO was used as a vehicle for epothilones. Each mouse received ≦40 μL DMSO in all experiments.
Athymic nude mice (nu/nu) were used for MX-1 and MCF-7/Adr human mammary carcinoma xenografts. Mice were obtained from Taconic Laboratory Animals and Service (Germantown, N.Y.: outbred, Swiss background).

[9] = CCRF/CEM Leukemia, dEpoB 30 mg/kg Q2D x 5, Taxol 15 mg/kg Q2D x 5
[10] = Dose DesoxyepoB 40, Taxol 20, i.v. infusion 6 hr on day 21,23,25,27
[11] = Table 26, Dose Q2D x 4: DesoxyepoB 40, Taxol 20

C/C1=C/C[C@@H](/C(C)=C/c2csc(C)n2)OC(=O)C[C@H](O)C(C)(C)C(=O)[C@H](C)[C@@H](O)[C@@H](C)CCC1 [Desoxyepothilone B, desoxyepothilone B]
half-life in human plasma [1]: about 75 hours | Therapeutic effect Rank Order ([2]; CCRF-CEM, i.v. infusion): dEpoB ≈ Taxol ® | Lowest Average Tumor Size (T/C) [2, 9]: 0 T/C | Tumor Disappearance [2, 9]: 2/2 | Therapeutic Effects dEpoB vs Taxol ([2]; CCRF/CEM Leukemia, dEpoB 30 mg/kg Q2D x 5 vs Taxol 15 mg/kg Q2D x 5): ≅ | Died ([3]; 25 mg/kg QD × 4, 6 mice): 0 | Disappearance Duration ([3]; 25 mg/kg QD × 4, 6 mice): 0 | Number of mice died ([3]; 25 mg/kg, 6 mice): 0 | decrease in lymphocytes [3]: 43% | body weight course ([3]; dEpoB 25 mg/kg daily i.p. for 4 days, listed as dEpoB): maintained approximately the same average body weight | body weight course ([3]; dEpoB 25 mg/kg daily i.p. for 4 days, listed as desoxyepothilone B): no reduction in average body weight | mice died / survived ([3]; 6 mice): all six mice survived | mice died / survived ([3]; 6 mice, listed as dEpoB): zero of six | Therapeutic effect Rank Order ([4]; CCRF-CEM/VBL, i.v. infusion): dEpoB >>> Taxol ® | Lowest Average Tumor Size (T/C) ([4]; CCRF/VBL Leukemia): 0 T/C | Tumor Disappearance ([4]; CCRF/VBL Leukemia): 2/2 | Therapeutic Effects dEpoB vs Taxol ([4]; CCRF/VBL Leukemia, dEpoB 30 mg/kg Q2D x 5 vs Taxol 15 mg/kg Q2D x 5): >>> | Lowest Average Tumor Size (T/C) ([5]; UL3-C Ovary): 0.03 T/C | Tumor Disappearance ([5]; UL3-C Ovary): 0 | Therapeutic Effects dEpoB vs Taxol ([5]; UL3-C Ovary, dEpoB 30 mg/kg Q2D x 5 vs Taxol 15 mg/kg Q2D x 5): ≧ | Average Body Weight (change), Day 33 [5]: -2.7 g | Average Body Weight Change, Day 27 [5]: -1.5 g | Average Body Weight Change, Day 29 [5]: -4.0 g | Average Body Weight Change, Day 31 [5]: -3.6 g | Average Tumor Size (T/C), Day 27 [5]: 0.19 T/C | Average Tumor Size (T/C), Day 29 [5]: 0.13 T/C | Average Tumor Size (T/C), Day 31 [5]: 0.03 T/C | Average Tumor Size (T/C), Day 33 [5]: 0.03 T/C | Average Body Weight, Day 19 [5]: 30.0 g | GOT [6]: 296 U/L | GPT [6]: 55 (n = 3) U/L | WBC Lymph [6]: 48% | WBC Neutrophils [6]: 48% | WBC Total [6]: 11.8 10^3/mm^3 | Lowest Average Tumor Size (T/C) [7]: 0.02 T/C | Tumor Disappearance [7]: 0 | Therapeutic Effects dEpoB vs Taxol ([7]; dEpoB 30 mg/kg Q2D x 6 vs Taxol 15 mg/kg Q2D x 6): ≦ | Therapeutic effect Rank Order ([7]; i.v. infusion): Taxol ® ≧ dEpoB

C/C(=C\c1csc(C)n1)[C@@H]1C[C@@H]2O[C@]2(C)CCC[C@H](C)[C@H](O)[C@@H](C)C(=O)C(C)(C)[C@@H](O)CC(=O)O1 [Epothilone B, epothilone B]
Died ([3]; 0.6 mg/kg QD × 4, 8 mice): 8 | Disappearance Duration ([3]; 0.6 mg/kg QD × 4, 8 mice): 8 | Number of mice died ([3]; 0.6 mg/kg, 8 mice): 8* | body weight course ([3]; EpoB 0.6 mg/kg QDx4 i.p.): steady decreases in body weight until death | decrease in lymphocytes [3]: 43% | mice died of toxicity ([3]; 8 mice): all eight and 8 of 8 | mice died of toxicity ([3]; 8 mice, listed as EpoB): all eight | reduction in average body weight ([3]; epothilone B 0.6 mg/kg i.p. for 4 days): 33%

CC(=O)O[C@H]1C(=O)[C@@]2(C)[C@H]([C@H](OC(=O)c3ccccc3)[C@]3(O)C[C@H](OC(=O)[C@H](O)[C@@H](NC(=O)c4ccccc4)c4ccccc4)C(C)=C1C3(C)C)[C@]1(OC(C)=O)CO[C@@H]1C[C@@H]2O [Taxol ®, paclitaxel]
Tumor Disappearance [2, 9]: 2/2 | Average Body Weight Changes, Day 23 [2, 10]: -0.1 g | Average Body Weight Changes, Day 25 [2, 10]: -1.9 g | Average Body Weight Changes, Day 27 [2, 10]: -2.9 g | Average Body Weight Changes, Day 29 [2, 10]: -3.0 g | Average Body Weight Changes, Day 31 [2, 10]: -3.6 g | Average Body Weight Changes, Day 33 [2, 10]: -2.6 g | Average Body Weight Changes, Day 35 [2, 10]: -0.5 g | Average Body Weight Changes, Day 37 [2, 10]: +1.2 g | Average Body Weight Changes, Day 39 [2, 10]: +1.3 g | Average Body Weight Changes, Day 41 [2, 10]: +2.1 g | Average Tumor Size (T/C), Day 21 [2, 10]: 1.17 T/C | Average Tumor Size (T/C), Day 23 [2, 10]: 0.78 T/C | Average Tumor Size (T/C), Day 25 [2, 10]: 0.44 T/C | Average Tumor Size (T/C), Day 27 [2, 10]: 0.11 T/C | Average Tumor Size (T/C), Day 29 [2, 10]: 0 T/C | Average Tumor Size (T/C), Day 31 [2, 10]: 0 T/C | Average Tumor Size (T/C), Day 33 [2, 10]: 0 T/C | Average Tumor Size (T/C), Day 35 [2, 10]: 0 T/C | Proportion of Tumor Disappearance (n/total), Day 21 [2, 10]: 0/4 | Proportion of Tumor Disappearance (n/total), Day 23 [2, 10]: 0/4 | Proportion of Tumor Disappearance (n/total), Day 25 [2, 10]: 0/4 | Proportion of Tumor Disappearance (n/total), Day 27 [2, 10]: 1/4 | Proportion of Tumor Disappearance (n/total), Day 29 [2, 10]: 4/4 | Proportion of Tumor Disappearance (n/total), Day 31 [2, 10]: 4/4 | Proportion of Tumor Disappearance (n/total), Day 33 [2, 10]: 4/4 | Proportion of Tumor Disappearance (n/total), Day 35 [2, 10]: 1/4 | Proportion of Tumor Disappearance (n/total), Day 37 [2, 10]: 0/4 | Proportion of Tumor Disappearance (n/total), Day 39 [2, 10]: 0/4 | Proportion of Tumor Disappearance (n/total), Day 41 [2, 10]: 0.4 | Average Body Weight Change, Day 23 [2, 11]: -0.1 g | Average Body Weight Change, Day 25 [2, 11]: -1.9 g | Average Body Weight Change, Day 27 [2, 11]: -2.9 g | Average Body Weight Change, Day 29 [2, 11]: -3.0 g | Average Body Weight Change, Day 31 [2, 11]: -3.6 g | Average Tumor Size (T/C), Day 23 [2, 11]: 0.78 T/C | Average Tumor Size (T/C), Day 25 [2, 11]: 0.44 T/C | Average Tumor Size (T/C), Day 27 [2, 11]: 0.11 T/C | Average Tumor Size (T/C), Day 29 [2, 11]: 0 T/C | Average Tumor Size (T/C), Day 31 [2, 11]: 0 T/C | Tumor Disappearance [2, 11]: 4/4 | Average Body Weight, Day 21 [2, 11]: 29.0 g | Average Body Weight, Day 21 [2, 10]: 29.0 g | Lowest Average Tumor Size (T/C) ([4]; CCRF/VBL Leukemia): 0.76 T/C | Tumor Disappearance ([4]; CCRF/VBL Leukemia): 0 | Lowest Average Tumor Size (T/C) ([5]; UL3-C Ovary): 0.04 T/C | Tumor Disappearance ([5]; UL3-C Ovary): 0 | Average Body Weight (change), Day 33 [5]: -2.7 g | Average Body Weight Change, Day 27 [5]: -2.9 g | Average Body Weight Change, Day 29 [5]: -3.3 g | Average Body Weight Change, Day 31 [5]: -2.4 g | Average Tumor Size (T/C), Day 27 [5]: 0.10 T/C | Average Tumor Size (T/C), Day 29 [5]: 0.08 T/C | Average Tumor Size (T/C), Day 31 [5]: 0.03 T/C | Average Tumor Size (T/C), Day 33 [5]: 0.04 T/C | Average Body Weight, Day 19 [5]: 31.3 g | GOT [6]: 438 U/L | GPT [6]: 79 (n = 5) U/L | WBC Lymph [6]: 48% | WBC Neutrophils [6]: 51% | WBC Total [6]: 10.9 10^3/mm^3 | Lowest Average Tumor Size (T/C) [7]: 0.01 T/C | Tumor Disappearance [7]: 0 | LD50 [8]: 12 mg/kg

Source: patent US6603023B2 (priority 1996, dated 2003)
